The source of these data is patent US9365511B2, “Biphenyl-ethyl-pyrrolidine derivatives as histamine H3 receptor modulators for the treatment of cognitive disorders” (Arena Pharmaceuticals, Inc., priority 2013, dated 2016).

In data set [1] the test system is histamine-induced scratching behavior in mice. Nature of the data set: Histamine-induced model for pruritus (Example 6). Conditions: oral administration, histamine s.c. 30 min post-dosing, bouts counted 5-15 min, FIG. 6. The format is in vivo, C57BL/6j male mice. How it is done: H3R inhibitors, Compound 3 and Compound 11, were dissolved in 0.5% methylcellulose at the appropriate concentration and 100 μL were administered orally to 8-week-old C57BL/6j male mice. Thirty minutes post-dosing, 25 μL of 40 mg/mL histamine solution was injected subcutaneously at the rostral part of the back. Mice were video recorded and the number of scratching bouts that occurred between 5 and 15 minutes was counted after histamine injection.

The next data set addresses human H3 receptor (Homo sapiens (Human), UniProt Q9Y5N1). Description: Human H3 receptor HTRF cAMP assay. The format is cell-based. Conditions: HEK293 cells expressing the human H3 receptor, forskolin 2 μM; read-out: IC50 H3R. From the text:
Homogeneous time-resolved fluorescence assays (HTRF®, Cisbio) detect levels of cAMP in lysed cell preparations using a europium or terbium cryptate-labeled anti-cAMP antibody and fluorophore-labeled cAMP (cAMP-d2). In the absence of exogenous cAMP, the anti-cAMP antibody binds to cAMP-d2. Photoexcitation of the cryptate donor results in a combination of cryptate emission at 620 nm and fluorescence resonance energy transfer (FRET) from the cryptate to the acceptor d2 fluorophore, which then fluoresces at 665 nm. The 620/665 nm emission ratio is monitored. In the presence of exogenous cAMP, which competes with cAMP-d2 for binding to the anti-cAMP antibody, FRET is decreased and the […], providing a sensitive and accurate means to measure cAMP levels in biological assays.
Compounds of the present invention were evaluated using the human H3 receptor (H3R) HTRF cAMP assay. In this assay, HEK293 cells expressing the human H3 receptor were suspended in PBS containing 100 μM IBMX and plated into 384-well assay plates (Perkin Elmer Proxiplate 384-Plus; 15,000 cells per well; 5 μL plating volume) and allowed to equilibrate for an hour. Test compounds were serially diluted in 100% DMSO and then further diluted in PBS containing forskolin (2 μM). Test compounds (5 μL) were then added to the assay plate and the mixture was incubated for 1 hour. HTRF assay reagents (Cisbio, Dynamic 2 cAMP Kit), cAMP-d2 and cryptate-labeled anti-cAMP antibody, are mixed with cell lysis buffer and added to the assay plate. After 1-hour incubation with these reagents, the assay plate was read on an HTRF-compatible microplate reader (Perkin Elmer EnVision or BMG Pherastar). A cAMP standard curve was included on each assay plate and HTRF emission ratios for test compounds were fit to this curve to generate accurate measures of cAMP levels in each test well.
On the technique in general: In TR-FRET formats the signal depends on donor and acceptor labels being close together.

For data set [2], the system named is histamine-induced scratching behavior in mice. Nature of the data set: Histamine-induced model for pruritus (Example 5). The format is in vivo, C57BL/6 mice. The conditions noted are these: oral administration, histamine 3 μmol s.c. 30 min post-dosing, bouts counted 0-30 min, FIG. 5. The method, then: C57BL/6 mice (9 per group) were administered with either vehicle (0.5% Methocellulose) or Compound 3. Thirty minutes post-dosing, the mice were injected with histamine (3 μmol) subcutaneously and placed in a clear observation box. Mice were video recorded and the number of scratching bouts that occurred between 0 and 30 minutes was counted after histamine injection.

A short description of data set [3]: Brain to plasma ratio determination in male C57BL6 mouse. Type of data set: in vivo, Male C57BL6 mice. How it is done: Male C57BL6 mice were administered Compound 3 at 3 mg/kg by either intraperitoneal injection (IP) or oral gavage (PO). Plasma and brain samples were collected at 0.5 and 2.0 h post-dose. Blood samples were collected via eye bleed, followed by decapitation and extraction of the brain from the cranial cavity. Blood was treated with 0.5% EDTA; plasma was separated by centrifugation. Brain tissue was placed in ice-cold containers. Plasma and brain samples were frozen at approximately −70° C. until assayed at Arena Pharmaceuticals. Compound 3 plasma and brain concentrations were determined by LC/MS/MS. The lower limit of quantitation (i.e., LLQ) was 25.0 and 3.0 ng/mL for plasma and brain, respectively.

“Also recorded” adds a separate entry of the source. Read-outs that look alike come from different tables or passages of the source.

Chain of human H3 receptor (Q9Y5N1 whole entry): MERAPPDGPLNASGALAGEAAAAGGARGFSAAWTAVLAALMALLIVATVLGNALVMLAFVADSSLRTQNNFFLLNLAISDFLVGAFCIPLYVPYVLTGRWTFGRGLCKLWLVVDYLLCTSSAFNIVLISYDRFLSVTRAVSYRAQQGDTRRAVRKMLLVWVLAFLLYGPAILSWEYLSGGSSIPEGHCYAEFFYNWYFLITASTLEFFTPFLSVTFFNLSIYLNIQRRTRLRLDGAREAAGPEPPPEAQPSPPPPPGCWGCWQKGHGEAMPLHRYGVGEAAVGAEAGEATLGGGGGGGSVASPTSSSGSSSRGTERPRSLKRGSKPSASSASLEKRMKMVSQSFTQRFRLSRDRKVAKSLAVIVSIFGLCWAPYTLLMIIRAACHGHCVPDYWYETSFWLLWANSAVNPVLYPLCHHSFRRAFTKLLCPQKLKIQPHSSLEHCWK

For `CCOC(=O)CCc1ccc(-c2ccc(CCN3CCC[C@H]3C)cc2)cc1` [Compound 11, (R)-Ethyl 3-(4′-(2-(2-Methylpyrrolidin-1-yl)ethyl)biphenyl-4-yl)propanoate], in data set [1], the “histamine-induced scratching behavior (number of scratching bouts)” value is given as “effectively inhibit histamine-induced pruritus; also recorded: inhibit histamine-induced scratching behavior”. Also, the 50% inhibitory concentration (IC50) (as a rule, the concentration at which inhibition is half-maximal) on human H3 receptor came to 1.8 nM.
For `C[C@@H]1CCCN1CCc1ccc(-c2ccc(CCC(=O)O)cc2)cc1` [Compound 3, (R)-3-(4′-(2-(2-Methylpyrrolidin-1-yl)ethyl)biphenyl-4-yl)propanoic Acid], the “histamine-induced scratching behavior (number of scratching bouts)” value in data set [1] is listed as “effectively inhibit histamine-induced pruritus; also recorded: inhibit histamine-induced scratching behavior”; in data set [2], “effectively inhibits histamine-induced pruritus; also recorded: inhibit histamine-induced scratching behavior”. Besides, at human H3 receptor, the IC50 was 2.5 nM. Besides, the concentration at 0.5 h in data set [3] (C57BL6, brain, 3 mg/kg PO, 0.5 h post-dose, read-out: brain concentration) came out at 39.8 ± 22.7 ng/g; in data set [3] (C57BL6, brain, intraperitoneal, 3 mg/kg IP, 0.5 h post-dose, read-out: brain concentration), 71.7 ± 10.7 ng/g; in data set [3] (C57BL6, plasma, 3 mg/kg PO, 0.5 h post-dose, read-out: plasma concentration), 1080 ± 487 ng/mL; in data set [3] (C57BL6, plasma, intraperitoneal, 3 mg/kg IP, 0.5 h post-dose, read-out: plasma concentration), 1350 ± 104 ng/mL. Besides, the concentration at 2 h in data set [3] (C57BL6, brain, 3 mg/kg PO, 2.0 h post-dose, read-out: brain concentration) was 29.1 ± 7 ng/g; in data set [3] (C57BL6, brain, intraperitoneal, 3 mg/kg IP, 2.0 h post-dose, read-out: brain concentration) it was 17.2 ± 7.5 ng/g; in data set [3] (C57BL6, plasma, 3 mg/kg PO, 2.0 h post-dose, read-out: plasma concentration), 619 ± 185 ng/mL; in data set [3] (C57BL6, plasma, intraperitoneal, 3 mg/kg IP, 2.0 h post-dose, read-out: plasma concentration), 364 ± 135 ng/mL. Further, the partition ratio (Kp) (in general, the ratio of the level in a tissue or fluid to that in plasma or blood) in data set [3] (C57BL6, brain/plasma, 3 mg/kg IP, independent of time) was ~0.05. Further, the Kp at 0.5 h in data set [3] (C57BL6, brain/plasma, 3 mg/kg PO, 0.5 h post-dose) was found to be 0.04. Also, the Kp at 2 h in data set [3] (C57BL6, brain/plasma, 3 mg/kg PO, 2.0 h post-dose) was 0.05.
On to `COC(=O)CCCNC(=O)C1(c2ccc(-c3ccc(CCN4CCC[C@H]4C)cc3)cc2)CCCC1` [Compound 16, (R)-Methyl 4-(1-(4′-(2-(2-Methylpyrrolidin-1-yl)ethyl)biphenyl-4-yl)cyclopentanecarboxamido)butanoate], for which, on human H3 receptor, the half-inhibitory concentration (IC50) came to 1.5 nM.
Still for that read-out and setting: the figure for `C[C@@H]1CCCN1CCc1ccc(-c2ccc(CCn3ncnn3)cc2)cc1` [Compound 8, (R)-2-(2-(4′-(2-(2-Methylpyrrolidin-1-yl)ethyl)biphenyl-4-yl)ethyl)-2H-tetrazole] is 1.2 nM; for `C[C@@H]1CCCN1CCc1ccc(-c2ccc(C(C)(C)C(=O)O)cc2)cc1` [Compound 10, (R)-2-Methyl-2-(4′-(2-(2-methylpyrrolidin-1-yl)ethyl)biphenyl-4-yl)propanoic Acid] it is 3.1 nM.
`C[C@@H]1CCCN1CCc1ccc(-c2ccc(Cc3nnn[nH]3)cc2)cc1` [Compound 37, (R)-5-((4′-(2-(2-Methylpyrrolidin-1-yl)ethyl)biphenyl-4-yl)methyl)-1H-tetrazole]: the concentration for half-maximal inhibition (IC50) at human H3 receptor turned out to be 0.78 nM.
Still for that read-out and setting: under `C[C@@H]1CCCN1CCc1ccc(-c2ccc(CCn3cnnn3)cc2)cc1` [Compound 7, (R)-1-(2-(4′-(2-(2-Methylpyrrolidin-1-yl)ethyl)biphenyl-4-yl)ethyl)-1H-tetrazole] stands 0.93 nM; under `C[C@@H]1CCCN1CCc1ccc(-c2ccc(C(=O)O)cc2)cc1` [Compound 1, (R)-4′-(2-(2-Methylpyrrolidin-1-yl)ethyl)biphenyl-4-carboxylic Acid], 3.8 nM.
On the same count and under the same terms, under `C[C@@H]1CCCN1CCc1ccc(-c2ccc(C(=O)NCCC(=O)O)cc2)cc1` [Compound 43, (R)-3-(4′-(2-(2-Methylpyrrolidin-1-yl)ethyl)biphenyl-4-ylcarboxamido)propanoic Acid] stands 2.5 nM.
`COC(=O)C(C)(C)NC(=O)c1ccc(-c2ccc(CCN3CCC[C@H]3C)cc2)cc1` [Compound 38, (R)-Methyl 2-Methyl-2-(4′-(2-(2-methylpyrrolidin-1-yl)ethyl)biphenyl-4-ylcarboxamido)propanoate]: the IC50 at human H3 receptor was 1.2 nM.
Take `COC(=O)CCc1ccc(-c2ccc(CCN3CCC[C@H]3C)cc2)cc1` [Compound 9, (R)-Methyl 3-(4′-(2-(2-Methylpyrrolidin-1-yl)ethyl)biphenyl-4-yl)propanoate]: at human H3 receptor, the half-maximal inhibitory concentration (IC50) is 1.1 nM.
As for `COC(=O)CNC(=O)C1(c2ccc(-c3ccc(CCN4CCC[C@H]4C)cc3)cc2)CCCC1` [Compound 27, (R)-Methyl 2-(1-(4′-(2-(2-Methylpyrrolidin-1-yl)ethyl)biphenyl-4-yl)cyclopentanecarboxamido)acetate], at human H3 receptor, the IC50 was 1.9 nM.
